Test results as given in ChEMBL document CHEMBL1135292, “A practical synthesis of (S) 3-tert-butoxycarbonylamino-2-oxo-2,3,4,5-tetrahydro-1,5-benzodiazepine-1-acetic acid methyl ester as a conformationally restricted dipeptido-mimetic for caspase-1 (ICE) inhibitors” (Bioorg Med Chem Lett, 2002).

Tests used:
[1] = organism: Homo sapiens; assay: Ability to block the release of interleukin-1 beta from human whole blood stimulated with heat-killed staphylococcus aureus; format: functional, organism-based
[2] = target: T1, Caspase-1 (Homo sapiens, UniProt P29466); assay: Compound was tested for inhibitory activity against IL-1 beta converting enzyme
T1 sequence (P29466 whole entry): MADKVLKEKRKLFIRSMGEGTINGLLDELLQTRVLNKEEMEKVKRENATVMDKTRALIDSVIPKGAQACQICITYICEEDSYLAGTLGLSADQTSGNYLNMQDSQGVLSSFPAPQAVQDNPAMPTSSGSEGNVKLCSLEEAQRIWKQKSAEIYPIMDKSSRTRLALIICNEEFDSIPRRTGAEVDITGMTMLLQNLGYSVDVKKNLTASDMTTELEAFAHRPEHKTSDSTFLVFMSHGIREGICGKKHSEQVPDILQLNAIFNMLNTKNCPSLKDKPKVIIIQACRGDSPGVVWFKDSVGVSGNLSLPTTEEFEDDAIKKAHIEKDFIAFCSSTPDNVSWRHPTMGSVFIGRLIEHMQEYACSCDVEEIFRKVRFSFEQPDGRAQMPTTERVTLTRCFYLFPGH

Row | SMILES | IC50 [1] [nM] | Ki [2] [nM]
1 | CC(=O)N[C@@H](Cc1ccc(O)cc1)C(=O)N[C@H](C(=O)N[C@@H](C)C(=O)N[C@H]1CC(=O)OC1O)C(C)C (some centres not stated) | 4000 | 
2 | O=C(CN1C(=O)[C@@H](NC(=O)c2ccccc2)CN(C(=O)CCc2ccccc2)c2ccccc21)N[C@H]1CC(=O)OC1O (some centres not stated) |  | 90
